From the supplement of paper PMC4862054 come the findings set out here.

Each structure is given as a SMILES string. Bounds are passed on as bounds.

Conditions in all cases: 72 h
The test system of experiment [1] is MDA-MB-231. The protocol:
(§1)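 Drug sensitivity and resistance testing (DSRT) of breast cancer cell lines in 384-well plates, 5 concentrations in 10-fold dilutions over a compound-specific 10,000-fold range. After 72 h, cytotoxicity was read by CellTox Green fluorescence and viability by CellTiter-Glo luminescence (multiplexed), normalised to DMSO and benzethonium chloride controls. EC50 is the inflection point of the fitted dose-response curve (bottom asymptote free, so it can be relative for partial curves) and is censored at the highest tested concentration. Rows with DSS 0 (no meaningful response) were excluded.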

Experiment [2] has as its system CAL-85-1. How it is done:
as §1

Experiment [3] concerns CAL-120. The protocol: as §1
Experiment [4] deals with DU-4475. The protocol: as §1
Experiment [5] deals with MCF-10A. The protocol:
as §1

Experiment [6] relates to MDA-MB-231. In outline: (§2)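 Breast cancer cell lines in 20 µl suspension were added to 384-well plates already holding compound at 5 concentrations, spaced in 10-fold steps across a compound-specific 10,000-fold range, and incubated for 72 h. CellTox Green fluorescence (485/520 nm) was read first to measure cell death, followed by CellTiter-Glo luminescence for viability after 10 min at room temperature. Each plate was normalised to 0.1 % DMSO and a positive kill control. EC50 values came from dose-response curve fits and were censored at the top concentration.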
This is another data set of the same source.

The test system of experiment [7] is MFM-223. In outline:
as §2

Experiment [8] has as its system MDA-MB-436. In outline: as §2
Experiment [9] has as its system CAL-85-1. In short, it runs like this:
as §2
The source holds these as a separate data set.

For experiment [10], the system named is HDQ-P1. In short, it runs like this: as §2
For experiment [11], the system named is CAL-120. In outline: as §2
The source holds these as a separate data set.

Experiment [12] relates to Hs578T. In outline:
as §2

In experiment [13] the test system is BT-474. In short, it runs like this:
as §2

For experiment [14], the system named is DU-4475. In short, it runs like this:
as §2
The source holds these as a separate data set.

Experiment [15] concerns MCF-10A. In short, it runs like this:
as §2
The source holds these as a separate data set.

Experiment [16] has as its system HCC1937. In outline: as §2
Experiment [17] concerns BT-549. The protocol:
as §1

Experiment [18] has as its system MFM-223. The protocol:
as §1
This is another data set of the same source.

Experiment [19] relates to MDA-MB-468. The protocol: as §1
Experiment [20] has as its system MDA-MB-453. How it is done: as §1
Experiment [21] concerns MDA-MB-436. The protocol: as §1
This is another data set of the same source.

The test system of experiment [22] is HDQ-P1. The protocol: as §1
The source holds these as a separate data set.

Experiment [23] deals with BT-474. How it is done:
as §1
This is another data set of the same source.

For experiment [24], the system named is CAL-148. How it is done:
as §1

In experiment [25] the test system is CAL-51. The protocol:
as §1

Experiment [26] relates to HCC1937. The protocol: as §1
The source holds these as a separate data set.

In experiment [27] the test system is HCC1599. How it is done:
as §1

Experiment [28] relates to BT-549. In outline: as §2
The source holds these as a separate data set.

The subject of experiment [29] is MDA-MB-468. In outline:
as §2
This is another data set of the same source.

Experiment [30] relates to MDA-MB-453. In outline:
as §2
This is another data set of the same source.

In experiment [31] the test system is SK-BR-3. In outline: as §2
Experiment [32] concerns HCC1143. In outline:
as §2

Experiment [33] deals with CAL-148. In short, it runs like this:
as §2
This is another data set of the same source.

The subject of experiment [34] is CAL-51. In short, it runs like this: as §2
The source holds these as a separate data set.

The test system of experiment [35] is HCC1599. In short, it runs like this:
as §2
The source holds these as a separate data set.

In experiment [36] the test system is CAL-85-1. In short, it runs like this:
(§3)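 EC50 is the value from a fitted percent-inhibition dose-response curve, censored at the highest concentration, and rows with zero drug sensitivity score were not kept. The underlying assay seeded breast cancer cell lines in 20 µl onto 384-well plates pre-loaded with compound in 5 µl medium for 72 h. Viability was then read by CellTiter-Blue fluorescence at 560/590 nm after 2 h at 37 °C, with each plate normalised to vehicle and a positive kill control.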
The source holds these as a separate data set.

In experiment [37] the test system is HDQ-P1. In short, it runs like this: as §3
The source holds these as a separate data set.

For experiment [38], the system named is DU-4475. In short, it runs like this: as §3
The source holds these as a separate data set.

For experiment [39], the system named is Hs578T. In outline: as §3
The source holds these as a separate data set.

For `CC(=O)Nc1cccc(-n2c(=O)n(C3CC3)c(=O)c3c(Nc4ccc(I)cc4F)n(C)c(=O)c(C)c32)c1` [Trametinib], the “EC50, CellTox Green” value in [1] is 0.4 nM; in [2], 71.5 nM; in [3] it was 45.4 nM; in experiment [4], 2.32 nM; in experiment [5], 79.2 nM. In addition, the “EC50, CellTiter-Glo” value is 6.45 nM in experiment [6]; 53.2 nM in experiment [7]; 67 nM in experiment [8]; 21.1 nM in experiment [9]; 1.7 nM in experiment [10]; 16.2 nM in [11]. Moreover, the “EC50, CellTiter-Glo” value is 137 nM in experiment [12]; 14.7 nM in [13]; 1.37 nM in experiment [14]; 0.71 nM in experiment [15]; 172 nM in [16].
Regarding `COc1cc2c(NC3CCN(C(C)C)CC3)nc(C3CCCCC3)nc2cc1OCCCN1CCCC1` [UNC0638], the “EC50, CellTox Green” value in [1] stood at 1650 nM; in experiment [17] it was 2100 nM; in experiment [18], 2920 nM; in experiment [19], 2380 nM; in [20], 2520 nM; in experiment [21] it was 4240 nM. For the same molecule, the “EC50, CellTox Green” value in [2] worked out at 2440 nM; in experiment [22], 4720 nM; in [3], 2440 nM; in [23] it was 2200 nM; in [24], 2730 nM; in experiment [25], 1650 nM. Also, the “EC50, CellTox Green” value is 2230 nM in experiment [5], 2140 nM in experiment [26] and 1440 nM in [27]. Further, the “EC50, CellTiter-Glo” value in experiment [6] was found to be 2540 nM; in experiment [28] it was 2530 nM; in [7], 2270 nM; in experiment [29], 1950 nM; in experiment [30] it was 2400 nM; in experiment [8], 2510 nM. In addition, the “EC50, CellTiter-Glo” value in experiment [9] was found to be 3520 nM; in [10], 5250 nM; in experiment [31] it was 2270 nM; in experiment [11] it was 2720 nM; in experiment [32], 2380 nM; in [13] it was 2660 nM. Also, the “EC50, CellTiter-Glo” value in [14] was found to be 1650 nM; in [33], 2510 nM; in [34], 1660 nM; in [15], 1880 nM; in [16], 3460 nM; in experiment [35], 2790 nM.
Regarding `CCCS(=O)(=O)Nc1ccc(F)c(C(=O)c2c[nH]c3ncc(-c4ccc(Cl)cc4)cc23)c1F` [Vemurafenib], the “EC50, CellTox Green” value is more than 10000 nM in experiment [1], 421 nM in [4] and 21.9 nM in experiment [25]. In addition, the “EC50, CellTiter-Blue viability” value was more than 10000 nM in [36], 3680 nM in [37], 295 nM in experiment [38] and 9430 nM in [39]. For the same molecule, the “EC50, CellTiter-Glo” value in experiment [14] turned out to be 551 nM; in [34] it was 1680 nM.
